Measurements taken from EP4151646A1, “5-FLUOROURACIL DERIVATIVES AS PRODRUGS FOR CANCER TREATMENT” (Universität Hamburg, priority 2021, dated 2023).

Columns and labels:
Format in all cases: cell-based
HT29 = assay: XTT cell viability test on colon cancer cell line HT29; conditions: 72 hours incubation
Description: Three further JW-substances (JW-7, JW-8, JW-9) having the general structure according to formula 1b above with acyloxybenzyl-groups of different lengths (from 4 to 17 carbon atoms), but being asymmetrically substituted (i.e. having different groups R^A1 and R^B1), in four different concentrations (1.11, 3.33, 10 and 30 µmol/l) were investigated. As a comparison, 5-FU was used in the same concentrations. The investigated cell lines were the colon cancer cell lines CaCo2 and HT29.
(§1) The experiments consisted of three steps. On the first day, the cells were planted on 96-well-plates and left for growing and adhering for 24 hours. On the second day, the substances were applied in the known concentrations, diluted in the cell-line specific medium. After an incubation period of 72 hours, XTT-colouring (see, e.g., Roehm NW, Rodgers GH, Hatfield SM, Glasebrook AL, 1991, An improved colorimetric assay for cell proliferation and viability utilizing the tetrazolium salt XTT, J Immunol Methods, 142(2):257-65. doi: 10.1016/0022-1759(91)90114-u) was applied and the absorbance was measured after 6 hours. Table 2. Residues RA1 and RB1 of three further 5-Fluorouracil nucleoside triphosphate prodrugs according to the invention, being asymmetrically substituted with residues RA1 and RB1.

MDA-MB231 = assay: XTT cytotoxicity test on triple-negative breast carcinoma cell line; conditions: 25, 12.5 and 6.25 µmol/l, compared with 5-FU, 72 hours incubation
Description: In a first approach, six different JW-substances (JW-1, JW-2, JW-3, JW-4, JW-5, JW-6) having the general structure according to formula 1b above with acyloxybenzyl-groups of different lengths (from 8 to 13 carbon atoms) in three different concentrations (25, 12.5 and 6.25 µmol/l) were investigated. As a comparison, 5-FU was used in the same concentrations. The investigated cell line was a triple-negative breast carcinoma (MDA-MB231), see Fig. 2. The treatment of Triple Negative Breast Cancer is not well standardised, however, one of the treatment options includes 5-FU (Yin L, Duan JJ, Bian XW, Yu SC. Triple-negative breast cancer molecular subtyping and treatment progress. Breast Cancer Res. 2020 Jun 9;22(1):61. doi: 10.1186/s13058-020-01296-5. PMID: 32517735; PMCID: PMC7285581). […] Table 1. Residues RA1 and RB1 of six different symmetrically masked 5-Fluorouracil nucleoside triphosphate prodrugs according to the invention.
The experiments consisted of three steps. […] After an incubation period of 72 hours, XTT-colouring (see, e.g., Roehm NW, Rodgers GH, Hatfield SM, Glasebrook AL, 1991, An improved colorimetric assay for cell proliferation and viability utilizing the tetrazolium salt XTT, J Immunol Methods, 142(2):257-65. doi: 10.1016/0022-1759(91)90114-u) was applied and the absorbance was measured after 6 hours. […]

SW620 = assay: XTT cytotoxicity test on colon carcinoma cell line, wider concentration range; conditions: 30 µmol in triple dilution up to 0.014 µmol
Method: Further investigations were performed in relation these two substances (JW-1 and JW-4). The same procedure as in the first experiments was used, but with a wider concentration range in order to examine the onset of cytotoxicity and the therapeutic range more closely. Thus, JW-1, JW-4 and 5-FU were applied to the cells (colon carcinoma cell line SW620) in the concentrations of 30 µmol in triple dilution up to 0.014 µmol and then examined according to the same scheme. […] A major advantage is, however, their increased therapeutic range. The cytotoxicity threshold is much lower than that of 5-FU. In the case of 5-FU, first cytotoxic effects can be detected between 1 and 3 µmol. In comparison, the threshold for JW-1 and JW-4 is below 1 µmol.
as §1

| Compound | IC50 (HT29; 1.11, 3.33, 10 and 30 µmol/l) [µM] | cytotoxic effects (MDA-MB231) | IC-50 values compared with 5-FU (SW620) | cytotoxicity threshold (first cytotoxic effects) (SW620) | also measured |
| --- | --- | --- | --- | --- | --- |
| O=c1[nH]cc(F)c(=O)[nH]1 [Compound 5-FU, 5-fluorouracil] |  |  |  |  | IC50 (HT29; Homo sapiens, HT-29, 1.11, 3.33, 10 and 30 µmol/l): ~15 µM |
| C4/C17-TriPPPro [JW-07] | 4 to 5 |  |  |  |  |
| C8-TriPPPro [JW-1] |  | significantly stronger cytotoxicity | at least as low as 5-FU | below 1 µmol |  |
| C11-TriPPPro [JW-4] |  | significantly stronger cytotoxicity | at least as low as 5-FU | below 1 µmol |  |

Second part, led by results:

| IC50 (HT29; 1.11, 3.33, 10 and 30 µmol/l) [µM] | Compound | cytotoxic effects (MDA-MB231) | IC-50 values compared with 5-FU (SW620) | cytotoxicity threshold (first cytotoxic effects) (SW620) | also measured |
| --- | --- | --- | --- | --- | --- |
| 2 | C7/C9-TriPPPro [JW-08] |  |  |  |  |
| 1 to 2 | C10/C12-TriPPPro [JW-09] |  |  |  |  |
